Experimental findings from patent US20260364184A1, “COMPOUND BASED ON OXOISOINDOLINYL-SUBSTITUTED TETRAHYDROPYRIMIDINE-DIONE AND USE THEREOF” (GLUETACS THERAPEUTICS (SHANGHAI) CO., LTD., priority 2023, published 2026) are described below.

For test [1], the system named is Human acute lymphocytic leukemia T lymphocytes cell line (CCRF-CEM). Briefly: Inhibition of CCRF-CEM cell proliferation (CellTiter luminescent viability). Type of test: cell-based. The following applies: Homo sapiens, 96 h, Table IF2, AR inhibitor-based; for inhibition at 0.01 µM: 10 nM, read-out: Inhibition Rate at 10 nM (%); for inhibition at 0.5 µM: 500 nM, read-out: Inhibition Rate at 500 nM (%).

In test [2] the test system is Human T lymphocytic leukemia cell line (Jurkat). Put plainly: Inhibition of Jurkat cell proliferation (CellTiter luminescent viability). Type of test: cell-based. The following applies: Homo sapiens, Table IF3, AR inhibitor-based, 96 hours; for inhibition at 0.01 µM: 10 nM, read-out: Inhibition Rate at 10 nM (%); for inhibition at 0.5 µM: 500 nM, read-out: Inhibition Rate at 500 nM (%). The method, then:
(§1) The tumor cells used herein were cultured in a cell culture medium listed in table 3 at 37 °C in an incubator with 5% CO2. Prior to experimentation, all cell lines used were correctly identified by STR profiling, and tested negative for mycoplasma contamination using a mycoplasma detection kit through routine screenings.
(§2) The IC50 values of the compounds of the present disclosure (including the compounds in Table 1, Table 2, and Examples 1-468) were determined using the CellTiter-Meiluncell Luminescent Cell Viability Assay Kit from Dalian Meilun Biotech Co., Ltd. The detailed procedure is as follows: Tumor cells were seeded in 96-well cell culture plates at the densities specified in Table 4. On the following day, the test compounds of the present disclosure were subjected to serial dilution. The dilution can be performed according to one of the following two methods: • (1) The first dilution method: The test compounds of the present disclosure (including the compounds in Table 1, Table 2, and Examples 1-468) were subjected to 5-fold serial dilutions starting from a highest concentration of 2000 μM, resulting in a total of 9 concentrations from high to low (2000, 400, 80, 16, 3.2, 0.64, 0.128, 0.0256, 0.00512 μM). Subsequently, 0.5 μL of the test compound dilution was transferred into the 96-well plate containing the cells, with each well containing 100 μL of cell culture medium. […] Into the 96-well plate, the diluted test compounds and corresponding detection reagents were added, resulting in final test compound concentrations of 500 nM and 10 nM, respectively. The experimental procedure is described below using the diluted 2 μM test compound as an example.
(§3) 0.5 μL of the aforementioned diluted compound of the present disclosure (including the compounds in Table 1, Table 2, and Examples 1-468) was added to the seeded cells in 100 μL of medium, yielding a final test compound concentration of 10 nM. After the cells were treated with the compounds of the present disclosure for a specified period, the cell viability assay reagent was added to the culture medium according to the kit's instructions to determine cell viability. […] All controls were treated using the same procedure as the compounds of the present disclosure. The growth inhibition curves for the compounds of the present disclosure were plotted using Prism GraphPad software, and the IC50 values were calculated therefrom.

For test [3], the system named is Human diffuse large B-cell lymphoma cell line (TMD8). Briefly: Inhibition of TMD8 cell proliferation (CellTiter luminescent viability). The following applies: Homo sapiens, TMD8, 96 h, Table IF1, AR inhibitor-based; for inhibition at 0.01 µM: TMD8, 10 nM, read-out: Inhibition Rate at 10 nM (%); for inhibition at 0.5 µM: TMD8, 500 nM, read-out: Inhibition Rate at 500 nM (%). The format is cell-based. The method, then: as §1, §2, §3

The subject of test [4] is Human lung cancer cell line (H292). Briefly: Inhibition of H292 cell proliferation (CellTiter luminescent viability). The format is cell-based. The following applies: NCI-H292, Table IE2, CDK4/6 inhibitor-based, 96 hours; for inhibition at 0.01 µM: H292, 10 nM, read-out: Inhibition Rate at 10 nM (%); for inhibition at 0.5 µM: H292, 500 nM, read-out: Inhibition Rate at 500 nM (%). The method, then:
as §1, §2, §3

Test [5] deals with Human myeloid monocytic leukemia cell line (MV-4-11). Briefly: Inhibition of MV-4-11 cell proliferation (CellTiter luminescent viability). The format is cell-based. The following applies: Homo sapiens, MV4-11, Table IE3, CDK4/6 inhibitor-based, 96 hours; for inhibition at 0.01 µM: MV-4-11, 10 nM, read-out: Inhibition Rate at 10 nM (%); for inhibition at 0.5 µM: MV-4-11, 500 nM, read-out: Inhibition Rate at 500 nM (%). The method in brief:
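Cells are seeded in 96-well plates, cultured at 37 °C, 5% CO2, and treated next day with 5-fold serial compound dilutions (stock series from 2000 μM; 0.5 μL into 100 μL medium). Viability is read by CellTiter-Meiluncell luminescence after the set exposure, and IC50 is taken from growth-inhibition curves.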

Test [6] has as its system Human B-Cell Lymphoma Cells (RPMI-8226). Briefly: Inhibition of RPMI-8226 cell proliferation (CellTiter luminescent viability). Type of test: cell-based. As to conditions: Table IA4, IRAK4 inhibitor-based, RPMI-8226, 500 nM, 96 hours, read-out: Inhibition Rate at 500 nM (%). The method, then:
as §1, §2, §3

Assay in test [7]: as above
As to conditions: Homo sapiens; Table IA4, IRAK4 inhibitor-based; RPMI-8226, 10 nM, 96 hours; read-out: Inhibition Rate at 10 nM (%). Type of test: cell-based. The method, then: as §1, §2, §3

Test [8] deals with T1, human Cereblon WT GST-tagged protein (CRBN) (Homo sapiens, UniProt Q96SW2).
T1 construct: purchased CISBIO 64BDCRBNPEH
T1 sequence (Q96SW2 whole entry): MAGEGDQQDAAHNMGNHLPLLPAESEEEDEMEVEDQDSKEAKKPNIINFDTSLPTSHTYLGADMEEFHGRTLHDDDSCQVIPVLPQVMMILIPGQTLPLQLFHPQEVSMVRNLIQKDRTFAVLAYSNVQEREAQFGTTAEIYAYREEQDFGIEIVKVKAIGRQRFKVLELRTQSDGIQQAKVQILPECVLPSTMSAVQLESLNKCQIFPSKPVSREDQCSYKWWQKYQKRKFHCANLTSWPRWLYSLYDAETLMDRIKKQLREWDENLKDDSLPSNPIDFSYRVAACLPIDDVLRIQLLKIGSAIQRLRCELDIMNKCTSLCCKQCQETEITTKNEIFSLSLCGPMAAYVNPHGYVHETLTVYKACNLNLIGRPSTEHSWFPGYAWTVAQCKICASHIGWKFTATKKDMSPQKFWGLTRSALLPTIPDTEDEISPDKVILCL
Briefly: CRBN binding by HTRF (Cereblon binding kit). The method in brief:
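GST-tagged human Cereblon WT was incubated 3 h at room temperature with compound, thalidomide-Re tracer and Eu anti-GST antibody. Final compound concentrations were 10 to 0.00064 µM (7 points) or 2 and 0.5 µM. Inhibition rate was calculated from HTRF 665/620 nm ratios versus solvent and blank controls.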
(In TR-FRET formats the signal depends on donor and acceptor labels being close together.)

Test [9] concerns Human large cell immunoblastic lymphoma cell line SR. Put plainly: Inhibition of SR cell proliferation (CellTiter luminescent viability). Type of test: cell-based. The following applies: Table IB1, ALK inhibitor-based, 96 hours, read-out: Inhibitory activity (IC50, nM) on tumor cell proliferation, SR. The method, then:
as §1, §2, §3

The inhibition is the share of the control response that was lost under treatment.

As to `CNC(=O)c1ccc(N2C(=S)N(c3ccc(C#N)c(C(F)(F)F)c3)C(=O)C2(C)C)cc1F` [Enzalutamide, reference compound], the results for the inhibition at 0.01 µM in test [1], in test [2] and in test [3] were 0 to 5%, 5 to 10% and 10 to 15%, respectively. For the same compound, the inhibition at 0.5 µM is 0 to 5% in test [1], 5 to 10% in test [2] and 10 to 15% in test [3].
As for `CN(C)C(=O)c1cc2cnc(Nc3ccc(N4CCC(CN5CCN(c6cccc7c6C(=O)N(N6CCC(=O)NC6=O)C7=O)CC5)CC4)cn3)nc2n1C1CCCC1` [GT-05202, 7-cyclopentyl-2-((5-(4-((4-(2-(2,4-dioxotetrahydropyrimidin-1(2H)-yl)-1,3-dioxoisoindolin-4-yl)piperazin-1-yl)methyl)piperidin-1-yl)pyridin-2-yl)amino)-N,N-dimethyl-7H-pyrrolo[2,3-d]pyrimidine-6-carboxamide], in [4], the inhibition at 0.01 µM fell in the range of 35 to 40% and the inhibition at 0.5 µM lay in the range of 35 to 40%. In addition, in [5], the inhibition at 0.01 µM was in the range of 15 to 20% and the inhibition at 0.5 µM was 40 to 60%.
As to `N#Cc1ccc(O[C@H]2CC[C@H](NC(=O)c3ccc(N4CCC(CN5C[C@H]6C[C@@H]5CN6c5ccc6c(c5)C(=O)N(N5CCC(=O)NC5=O)C6=O)CC4)nn3)CC2)cc1Cl` [GT-05227, N-((1r,4r)-4-(3-chloro-4-cyanophenoxy)cyclohexyl)-6-(4-(((1R,4R)-5-(2-(2,4-dioxotetrahydropyrimidin-1(2H)-yl)-1,3-dioxoisoindolin-5-yl)-2,5-diazabicyclo[2.2.1]heptan-2-yl)methyl)piperidin-1-yl)pyridazine-3-carboxamide], the inhibition at 0.01 µM in test [1] lay in the range of 20 to 30%; in test [2], 5 to 10%; in test [3], 15 to 20%. Also, the inhibition at 0.5 µM in [1] is 20 to 30%; in test [2], 20 to 30%; in [3], 25 to 30%.
For `N#Cc1ccc(O[C@H]2CC[C@H](NC(=O)c3ccc(N4CCC(CN5CCN(c6cccc7c6C(=O)N(N6CCC(=O)NC6=O)C7=O)CC5)CC4)nn3)CC2)cc1Cl` [GT-05230, N-((1r,4r)-4-(3-chloro-4-cyanophenoxy)cyclohexyl)-6-(4-((4-(2-(2,4-dioxotetrahydropyrimidin-1(2H)-yl)-1,3-dioxoisoindolin-4-yl)piperazin-1-yl)methyl)piperidin-1-yl)pyridazine-3-carboxamide], the results for the inhibition at 0.01 µM in [1], in [2] and in test [3] were 10 to 15%, 10 to 15% and 5 to 10%, respectively. Further, the values for the inhibition at 0.5 µM in [1], in test [2] and in test [3] were 20 to 30%, 20 to 30% and 20 to 25%, respectively.
On to `N#Cc1ccc(O[C@H]2CC[C@H](NC(=O)c3ccc(N4CCC(CN5CC6CC(C5)N6c5ccc6c(c5)C(=O)N(N5CCC(=O)NC5=O)C6=O)CC4)nn3)CC2)cc1Cl` [GT-05231, N-((1r,4r)-4-(3-chloro-4-cyanophenoxy)cyclohexyl)-6-(4-((6-(2-(2,4-dioxotetrahydropyrimidin-1(2H)-yl)-1,3-dioxoisoindolin-5-yl)-3,6-diazabicyclo[3.1.1]heptan-3-yl)methyl)piperidin-1-yl)pyridazine-3-carboxamide], for which the values for the inhibition at 0.01 µM in test [1], in test [2] and in test [3] were 5 to 10%, 10 to 15% and 5 to 10%, respectively. Moreover, the inhibition at 0.5 µM in [1] fell in the range of 30 to 40%; in test [2], 30 to 40%; in test [3], 40 to 60%.
Turning to `N#Cc1ccc(O[C@H]2CC[C@H](NC(=O)c3ccc(N4CCC(CN5CCN(C6CCN(c7ccc8c(c7)C(=O)N(N7CCC(=O)NC7=O)C8=O)CC6(F)F)CC5)CC4)nn3)CC2)cc1Cl` (some centres unmarked) [GT-05235, N-((1r,4r)-4-(3-chloro-4-cyanophenoxy)cyclohexyl)-6-(4-((4-(1-(2-(2,4-dioxotetrahydropyrimidin-1(2H)-yl)-1,3-dioxoisoindolin-5-yl)-3,3-difluoropiperidin-4-yl)piperazin-1-yl)methyl)piperidin-1-yl)pyridazine-3-carboxamide], the inhibition at 0.01 µM in [1] was in the range of 10 to 15%; in [2], 5 to 10%; in [3] it was 5 to 10%. Further, the values for the inhibition at 0.5 µM in [1], in test [2] and in [3] were 30 to 40%, 30 to 40% and 35 to 40%, respectively.
Consider `CC(C)(O)c1cc2nn(C3CCN(Cc4ccc5c(c4)C(=O)N(N4CCC(=O)NC4=O)C5=O)CC3)cc2cc1NC(=O)c1cccc(C(F)(F)F)n1` [GT-05752, N-(2-(1-((2-(2,4-dioxotetrahydropyrimidin-1(2H)-yl)-1,3-dioxoisoindolin-5-yl)methyl)piperidin-4-yl)-6-(2-hydroxypropan-2-yl)-2H-indazol-5-yl)-6-(trifluoromethyl) picolinamide], for which, in test [6], the inhibition at 0.5 µM fell in the range of 25 to 30%. In test [7], the inhibition at 0.01 µM was 15 to 20%.
Regarding `CN(C)C(=O)c1cc2cnc(Nc3ccc(N4CCN(Cc5ccc6c(c5)CN(N5CCC(=O)NC5=O)C6=O)CC4)cn3)nc2n1C1CCCC1` [GT-06335, 7-cyclopentyl-2-((5-(4-((2-(2,4-dioxotetrahydropyrimidin-1(2H)-yl)-1-oxoisoindolin-5-yl)methyl)piperazin-1-yl)pyridin-2-yl)amino)-N,N-dimethyl-7H-pyrrolo[2,3-d]pyrimidine-6-carboxamide], in [4], the inhibition at 0.01 µM fell in the range of 35 to 40% and the inhibition at 0.5 µM lay within 30 to 35%. Moreover, in [5], the inhibition at 0.01 µM was 10 to 15% and the inhibition at 0.5 µM lay in the range of 40 to 60%.
`CC(=O)c1c(C)c2cnc(Nc3ccc(N4CCC(N5CCN(Cc6ccc7c(c6)C(=O)N(N6CCC(=O)NC6=O)C7=O)CC5)CC4)cn3)nc2n(C2CCCC2)c1=O` [GT-06583, 5-((4-(1-(6-((6-acetyl-8-cyclopentyl-5-methyl-7-oxo-7,8-dihydropyrido[2,3-d]pyrimidin-2-yl)amino)pyridin-3-yl)piperidin-4-yl)piperazin-1-yl)methyl)-2-(2,4-dioxotetrahydropyrimidin-1(2H)-yl)isoindoline-1,3-dione]: in test [4], the inhibition at 0.01 µM lay within 35 to 40% and the inhibition at 0.5 µM was in the range of 40 to 60%. Moreover, in test [5], the inhibition at 0.01 µM fell in the range of 40 to 60% and the inhibition at 0.5 µM lay within 40 to 60%.
Turning to `COc1cc(N2CCC(N3CCN(C)CC3)CC2)ccc1Nc1ncc(Cl)c(Nc2ccccc2P(C)(C)=O)n1` [brigatinib, Brigatinib, reference compound], the “Inhibition Rate at 0.5 μM (%)” value in test [8] (0.5 μM) is recorded as “a (0% < a ≤ 10%)”. The “Inhibition Rate at 2 μM (%)” value in [8] (2 μM) is “a1 (10% < a1 ≤ 20%)”. Besides, the IC50 in test [9] is 1000 to 5000 nM.
